Reference: US20090176839A1, “FORMULATIONS OF 3-(6-(1-(2,2-DIFLUOROBENZO[D][1,3]DIOXOL-5-YL) CYCLOPROPANECARBOXAMIDO)-3-METHYLPYRIDIN-2-YL)BENZOIC ACID” (priority 2007, published 2009)
Where “and” joins values, the source holds several entries; their conditions need not be identical. Equal entries are not always repeated.

Columns and labels:
[1] = Oral pharmacokinetics of Compound 1 and HCl salt in suspension in male dogs at 200 mg/kg
[2] = Stability of 6 mg/mL aqueous methylcellulose-polysorbate 80 suspension (HPLC, XRPD, NMR); type: physicochemical; conditions: 0.5% methylcellulose/0.5% polysorbate 80; HCl salt quickly converted to Compound 1 at T(0)
Protocol: Methylcellulose (0.5 g) was combined with 99.0 g of purified water in a beaker and stirred in a 60-70° C. water bath for 30′-1 hr. The solution was stirred in a 0° C. ice/water bath for another 30′ or until clear. Polysorbate 80 (0.5 g) was added and stirring at room temperature followed for 30′-1 hr or until a clear solution was obtained.
The desired amount of 0.5% methylcellulose and 0.5% polysorbate 80 stock solution for making a 6 mg/mL based on free base (6.48 mg/mL based on HCl salt) was transferred into the vial and sonicated for 20 minutes with alternate stirring for 1-2 minutes. The solution was homogenized for approximately 1-2 minutes.
As with 0.5% methylcellulose formulation prepared previously, the HCl salt was quickly converted to Compound 1 in Form I at T(0) resulting in a crystalline free form suspension as shown by XRPD (FIG. 10) and confirmed by ^1H NMR analysis (FIGS. 11-13). Additionally, the solid form in suspension at T(0) was recovered an subjected to HPLC analysis: […]

[3] = Single oral pharmacokinetics of the HCl salt in suspension in male dogs; type: in vivo, male beagle dogs; conditions: for AUC0-INF / Cmax: mean (SD)
Protocol: (§1) Non-validated research grade assays were used for these analyses. All pharmacokinetic studies were conducted using fed animals unless otherwise specified.
At nominal dose levels of 5 to 200 mg/kg in 0.5% polysorbate 80/0.5% methylcellulose/water, exposure was high and relatively dose proportional to 200 mg/kg (Table 5). […] Bioavailability ranged from 24% to 49% at all dose levels studied and in both suspension formulations.

Solubility (statement) = type: physicochemical; conditions: water
[4] = Single oral pharmacokinetics of the HCl salt in suspension in fed and fasted male rats; type: in vivo, male Sprague Dawley rats; conditions: 30 mg/kg; for AUC0-INF: HCl salt suspension; for Clast / F / Tmax / t1/2 / tlast: HCl salt
Protocol: as §1
The tmax following oral administration of the HCl salt was 3.7 hours under fed and 3.3 hours under fasted conditions, which was similar to the tmax of 3.0 to 4.7 hours following oral administration of Compound 1 under fed conditions.

[5] = 0.5% polysorbate 80/0.5% MC/Water, 5 mg/kg
[6] = 0.5% polysorbate 80/0.5% MC/Water, 25 mg/kg
[7] = 0.5% polysorbate 80/0.5% MC/Water, 50 mg/kg
[8] = 0.5% polysorbate 80/0.5% MC/Water, 100 mg/kg
[9] = 0.5% polysorbate 80/0.5% MC/Water, 200 mg/kg

Cc1ccc(NC(=O)C2(c3ccc4c(c3)OC(F)(F)O4)CC2)nc1-c1cccc(C(=O)O)c1.Cl [HCl salt, 3-(6-(1-(2,2-difluorobenzo[d][1,3]dioxol-5-yl)cyclopropanecarboxamido)-3-methylpyridin-2-yl)benzoic acid.HCl]
Clast ([1]; HCl salt): 128 ng/mL | F ([1]; HCl salt): 53% | Tmax ([1]; HCl salt): 2.5 h | t1/2 ([1]; HCl salt): 5.5 h | tlast ([1]; HCl salt): 48 h | AUC0-INF ([1]; HCl salt suspension): 755 µg·h/mL | physical stability of suspension [2]: not physically stable | F ([3]; 0.5% MC/Water, 1 mg/kg): 35% | T1/2 ([3]; 0.5% MC/Water, 1 mg/kg): 6.0 h | Tmax ([3]; 0.5% MC/Water, 1 mg/kg): 0.83 h | AUC0-INF ([3]; 0.5% MC/Water, 1 mg/kg): 2.2 (0.5) hr · μg/mL | Cmax ([3]; 0.5% MC/Water, 1 mg/kg): 0.37 (0.2) μg/mL | F ([3]; 0.5% MC/Water, 3 mg/kg): 49% | T1/2 ([3]; 0.5% MC/Water, 3 mg/kg): 5.3 h | Tmax ([3]; 0.5% MC/Water, 3 mg/kg): 1.7 h | AUC0-INF ([3]; 0.5% MC/Water, 3 mg/kg): 9.3 (4.8) hr · μg/mL | Cmax ([3]; 0.5% MC/Water, 3 mg/kg): 1.1 (0.5) μg/mL | F ([3]; 0.5% MC/Water, 10 mg/kg): 40% | T1/2 ([3]; 0.5% MC/Water, 10 mg/kg): 8.8 h | Tmax ([3]; 0.5% MC/Water, 10 mg/kg): 1.0 h | AUC0-INF ([3]; 0.5% MC/Water, 10 mg/kg): 28.4 (12.8) hr · μg/mL | Cmax ([3]; 0.5% MC/Water, 10 mg/kg): 8.9 (7.2) μg/mL | F [3, 5]: 24% | T1/2 [3, 5]: 7.0 h | Tmax [3, 5]: 1.0 h | AUC0-INF [3, 5]: 11.0 (3.6) hr · μg/mL | Cmax [3, 5]: 3.0 (0.5) μg/mL | F [3, 6]: 41% | T1/2 [3, 6]: 5.9 h | Tmax [3, 6]: 2.0 h | AUC0-INF [3, 6]: 56.8 (22.1) hr · μg/mL | Cmax [3, 6]: 18.0 (3.7) μg/mL | F [3, 7]: 27% | T1/2 [3, 7]: 4.9 h | Tmax [3, 7]: 1.7 h | AUC0-INF [3, 7]: 63.4 (22.9) hr · μg/mL | Cmax [3, 7]: 21.0 (7.1) μg/mL | F [3, 8]: 46% | T1/2 [3, 8]: 5.4 h | Tmax [3, 8]: 1.7 h | AUC0-INF [3, 8]: 268 (123) hr · μg/mL | Cmax [3, 8]: 54.4 (6.8) μg/mL | F [3, 9]: 30% | T1/2 [3, 9]: 5.9 h | Tmax [3, 9]: 2.3 h | AUC0-INF [3, 9]: 523 (46.8) hr · μg/mL | Cmax [3, 9]: 101 (30.2) μg/mL | solubility in water (Solubility (statement)): sparingly soluble | AUC0-INF ([4]; Fasted): 383 µg·h/mL | AUC0-INF ([4]; Fed): 340 µg·h/mL | Clast ([4]; Fasted): 60 ng/mL | F ([4]; Fasted): >100% | Tmax ([4]; Fasted): 3.3 h and 3.33 h | t1/2 ([4]; Fasted): 5.36 h | tlast ([4]; Fasted): 48 h | Clast ([4]; Fed): 240 ng/mL | F ([4]; Fed): >100% | Tmax ([4]; Fed): 3.7 h and 3.67 h | t1/2 ([4]; Fed): 6.07 h | tlast ([4]; Fed): 48 h
